According to patent US5455356A, “Fungicidal 1-aryl-1-[α-(triazolyl)alkyl]-1-silacycloalkanes and their preparation methods” (priority 1993, dated 1995):
Like-named read-outs stand apart in the source and are kept apart here.

Tests used:
Type in all cases: cell-based
[1] = tested on: Pyricalaria oryzae; assay: In vitro mycelial/spore growth on potato-sucrose-agar, percent disease control (PO); settings: read-out: % controlled, PO
Method: (§1) The compounds of this invention were dissolved respectively in acetone in an amount equal to 10% of the final volume and then in purified water at the concentration of 100 ppm and 50 ppm.
(§2) Each of the solution was mixed with potato-sucrose-agar medium in 6" petri dish and one of the fungi was spotted at the center of the dish. The dish was incubated in growth room for several days. The percent disease control was derived from the radii of spore growth. The screening tests in vitro condition are well-known to those skilled in the art.
(§3) The following fungi were used for the screening.
6) Py. or.; Pyricalaria oryzae

[2] = tested on: Fusarium moniliforme; assay: In vitro mycelial/spore growth on potato-sucrose-agar, percent disease control (FM); settings: Fusarium verticillioides, read-out: % controlled, FM
Method: as §1, §2, §3
8) Fu. mo.; Fusarium moniliforme

[3] = tested on: Phytophthora capsisi; assay: In vitro mycelial/spore growth on potato-sucrose-agar, percent disease control (PC); settings: read-out: % controlled, PC
Method: as §1, §2, §3
2) Phy. ca.; Phytophthora capsisi

[4] = tested on: GC; assay: In vitro mycelial/spore growth on potato-sucrose-agar, percent disease control (GC); settings: read-out: % controlled, GC; for inhibition of growth at 50 ppm: GC
Method: as §1, §2, §3

[5] = tested on: Botritis cinerea; assay: In vitro mycelial/spore growth on potato-sucrose-agar, percent disease control (BC); settings: read-out: % controlled, BC
Method: as §1, §2, §3
10) Bo. ci.; Botritis cinerea

[6] = tested on: Rhizopus sp.; assay: In vitro mycelial/spore growth on potato-sucrose-agar, percent disease control (RS, second column); settings: read-out: % controlled, RS
Method: as §1, §2, §3
9) Rhi. sp.; Rhizopus sp.

[7] = tested on: Botryosphaeri; assay: In vitro mycelial/spore growth on potato-sucrose-agar, percent disease control (BD); settings: read-out: % controlled, BD
Method: as §1, §2, §3
4) Bo. do (Ma); Botryosphaeri

[8] = tested on: Rhizoctonia solani; assay: In vitro mycelial/spore growth on potato-sucrose-agar, percent disease control (RS, first column); settings: read-out: % controlled, RS
Method: as §1, §2, §3
7) Rhi. so.; Rhizoctonia solani

| Structure (SMILES) | inhibition of growth at 50 ppm [1] | inhibition of growth at 200 ppm [1] | inhibition of growth at 50 ppm ([2]; 50 ppm, Fusarium moniliforme) | inhibition of growth at 200 ppm ([2]; Fusarium moniliforme) | inhibition of growth at 50 ppm [3] | inhibition of growth at 200 ppm [3] | inhibition of growth at 50 ppm [4] | inhibition of growth at 200 ppm [4] | inhibition of growth at 50 ppm [5] | inhibition of growth at 200 ppm [5] | inhibition of growth at 50 ppm ([6]; 50 ppm, Rhizopus sp.) | inhibition of growth at 200 ppm ([6]; Rhizopus) | inhibition of growth at 50 ppm [7] | inhibition of growth at 200 ppm [7] | inhibition of growth at 50 ppm [8] | inhibition of growth at 200 ppm [8] | inhibition of growth at 50 ppm [2] | inhibition of growth at 50 ppm ([6]; Rhizopus) |
| --- | --- | --- | --- | --- | --- | --- | --- | --- | --- | --- | --- | --- | --- | --- | --- | --- | --- | --- |
| CC(n1cncn1)[Si]1(c2ccc(-c3ccccc3)cc2)CCCCC1 (stereo not drawn) [1-(4-biphenyl)-1-[α-(1H-1,2,4-triazole-1-yl)ethyl]-1-silacyclohexane] | 100% | 100% | 100% | 100% | 92% | 100% | 100% | 100% | 100% | 100% | 79% | 89% | 100% | 100% | 100% | 100% | – | – |
| CC(n1cncn1)[Si]1(c2ccc(-c3ccccc3)cc2)CCCC1 (stereo not drawn) [1-(4-biphenyl)-1-[α-(1H-1,2,4-triazole-1-yl)ethyl]-1-silacyclopentane] | 100% | 100% | 97% | 100% | 80% | 100% | 100% | 100% | 100% | 100% | 86% | 90% | 100% | 100% | 100% | 100% | – | – |
| Clc1ccc([Si]2(Cn3cncn3)CCCCC2)cc1 [1-(4-chlorophenyl)-1-(1H-1,2,4-triazole-1-yl)methyl-1-silacyclohexane] | 100% | 100% | 100% | 100% | 90% | 100% | 100% | 100% | 100% | 100% | 50% | 92% | 100% | 100% | 57% | 69% | – | – |
| Clc1ccc([Si]2(Cn3cncn3)CCCC2)cc1 [1-(4-chlorophenyl)-1-(1H-1,2,4-triazole-1-yl)methyl-1-silacyclopentane] | 100% | 100% | 100% | 100% | 15% | 98% | 100% | 100% | 100% | 100% | 67% | 75% | 70% | 99% | 95% | 100% | – | – |
| CC(n1cncn1)[Si]1(c2ccc(Cl)cc2)CCCCC1 (stereo not drawn) [1-(4-chlorophenyl)-1-[α-(1H-1,2,4-triazole-1-yl)ethyl]-1-silacyclohexane] | 100% | 100% | 100% | 100% | 75% | 100% | 100% | 100% | 100% | 100% | 77% | 90% | 100% | 100% | 100% | 100% | – | – |
| CC(n1cncn1)[Si]1(c2ccc(Cl)cc2)CCCC1 (stereo not drawn) [1-(4-chlorophenyl)-1-[α-(1H-1,2,4-triazole-1-yl)ethyl]-1-silacyclopentane] | 100% | 100% | 100% | 100% | 30% | 100% | 100% | 100% | 100% | 100% | 42% | 60% | 100% | 100% | 100% | 100% | – | – |
| CCOc1ccc([Si]2(Cn3cncn3)CCCCC2)cc1 [1-(4-ethoxyphenyl)-1-(1H-1,2,4-triazole-1-yl)methyl-1-silacyclohexane] | 100% | 100% | 73% | 99% | 65% | 87% | 100% | 100% | 74% | 94% | 54% | 85% | 79% | 100% | 94% | 100% | – | – |
| CCOc1ccc([Si]2(Cn3cncn3)CCCC2)cc1 [1-(4-ethoxyphenyl)-1-(1H-1,2,4-triazole-1-yl)methyl-1-silacyclopentane] | 100% | 100% | 68% | 79% | 40% | 100% | 100% | 100% | 70% | 74% | 66% | 77% | 82% | 89% | 72% | 100% | – | – |
| CCOc1ccc([Si]2(C(C)n3cncn3)CCCCC2)cc1 (stereo not drawn) [1-(4-ethoxyphenyl)-1-[α-(1H-1,2,4-triazole-1-yl)ethyl]-1-silacyclohexane] | 100% | 100% | 65% | 98% | 45% | 75% | 100% | 100% | 65% | 98% | 34% | 56% | 92% | 100% | 97% | 100% | – | – |
| CCOc1ccc([Si]2(C(C)n3cncn3)CCCC2)cc1 (stereo not drawn) [1-(4-ethoxyphenyl)-1-[α-(1H-1,2,4-triazole-1-yl)ethyl]-1-silacyclopentane] | 100% | 100% | 93% | 100% | 43% | 91% | 100% | 100% | 79% | 94% | 63% | 90% | 70% | 95% | 100% | 100% | – | – |
| Fc1ccc([Si]2(Cn3cncn3)CCCCC2)cc1 [1-(4-fluorophenyl)-1-(1H-1,2,4-triazole-1-yl)methyl-1-silacyclohexane] | 96% | 100% | 100% | 100% | 47% | 74% | 100% | 100% | 100% | 100% | 75% | 93% | 100% | 100% | 55% | 59% | – | – |
| Fc1ccc([Si]2(Cn3cncn3)CCCC2)cc1 [1-(4-fluorophenyl)-1-(1H-1,2,4-triazole-1-yl)methyl-1-silacyclopentane] | 100% | 100% | – | 100% | 80% | 100% | 100% | 100% | 100% | 100% | – | 83% | 100% | 100% | 95% | 100% | 10% | 75% |
